In PMC7310436, “JP3, an antiangiogenic peptide, inhibits growth and metastasis of gastric cancer through TRIM25/SP1/MMP2 axis” (Journal of Experimental & Clinical Cancer Research : CR, 2020):
Where a SMILES comes first, the peptide text is derived from it. [ ]: non-standard residue; d: D form. pY = N[C@@H](Cc1ccc(OP(=O)(O)O)cc1)C(=O)O; pT = C[C@@H](OP(=O)(O)O)[C@H](N)C(=O)O

Key:
[1] = test system: HUVECs; experiment: HUVECs tube formation assay with conditional medium of peptide-treated GC cells; format: cell-based, human; conditions: 4 h on Matrigel
Experimental: After 6 hours of peptide treatment of GC cells, the medium was replaced and cultured in a 60 mm petri dish containing 1% serum for 24 h. On the next day, 2 mL of conditional medium was collected. For tube formation assay, a 96-well plate was coated with 50 μL of Matrigel™ (BD Biosciences) and kept at 37 °C for 2 h. Then, 1.2 × 10^4 HUVECs suspended in 100 μL of conditional medium were applied to each well of the precoated 96-well plate. After incubation at 37 °C for 4 h, tubular structures formed in the Matrigel were captured in five randomly selected fields per sample under a microscope.

[2] = test system: BGC823 cells; experiment: Colony formation assay; format: cell-based, human; conditions: different concentrations of JP3
[3] = test system: SP1; experiment: Ubiquitination assay; format: cell-based, human
Experimental: (§1) GC cells were treated with or without JP3, followed by incubation with MG132 (10 μM) for another 6 h. Cells were harvested, prepared for protein samples and divided for Western blotting and co-IP assay, respectively. For co-IP assay, the protein (500 μg) was cultured with anti-SP1 or anti-TRIM25 antibody (dilution: 1:250) at 4 °C for 1 h, and Protein A/G Plus-Agarose overnight. After three cycles of washing in pre-cold IP buffer and centrifugation at 4 °C, 1000×g for 5 min, the immunoprecipitate was collected by centrifugation, eluted and examined by Western blotting.

[4] = test system: TRIM25; experiment: Ubiquitination assay; format: cell-based, human; conditions: BGC823 cells; His-Ub 48 h, 50 μM 24 h, MG132 10 μM 6 h; IP anti-TRIM25
Experimental: as §1

[5] = test system: SP1; experiment: Western blotting in GC cells; format: cell-based; conditions: SGC7901 and BGC823 (Non(p)-JP3: BGC823, 24 h)
Experimental: (§2) Western blotting analysis was carried out as previously described. The antibodies against MMP2, Tubulin, Ub, HA-tag, Flag-tag and Ki-67 were purchased from Cell Signal Technology (Danvers MA, USA); anti-CD31 and PCNA were provided by Epitomics (MA, USA); anti-GAPDH and Actin were purchased from Beyotime (Jiangsu, China); anti-TRIM25 and SP1 were provided by Proteintech (Wuhan, China); anti-His was purchased from MBL (Japan). All above antibodies were used at a dilution of 1:1000.

[6] = test system: TRIM25 mRNA; experiment: qRT-PCR; format: cell-based, human
Experimental: (§3) According to the manufacturer’s protocol, total RNAs were isolated using TRIzol (Invitrogen, CA, USA) and reversely transcribed into cDNAs using reverse transcription kit and the SYBR Green Master Mix kit (Takara, Otsu, Japan). The complementary DNA (cDNA) was amplified with the following primers: 5′-[…]-3′ (forward) and 5′-[…]-3′ (reverse) for TRIM25; 5′-[…]-3′ (forward) and 5′-[…]-3′ (reverse) for GAPDH; 5′-[…]’-3′ (forward) and 5′-[…]-3′ (reverse) for SP1. Quantitative RT-PCR was carried out an ABI Prism 7900 Sequence detection system (Applied Biosystems, Canada). Relative levels were normalized to that of GAPDH.

[7] = test system: SP1 mRNA; experiment: qRT-PCR; format: cell-based, human; conditions: BGC823 and SGC7901 cells
Experimental: as §3

[8] = test system: HUVECs; experiment: HUVECs tube formation assay, direct treatment of HUVECs; format: cell-based, human; conditions: HUVECs treated at similar dose for 24 h
[9] = test system: JWA; experiment: Western blotting in GC cells; format: cell-based, human; conditions: SGC7901 and BGC823
Experimental: as §2

[10] = test system: MMP2; experiment: Western blotting in GC cells; format: cell-based, human; conditions: SGC7901 and BGC823 (Non(p)-JP3: BGC823, 24 h)
Experimental: as §2

[11] = test system: SP1; experiment: Protein stability, CHX chase and Western blotting; format: cell-based, human; conditions: BGC823 cells; 50 μM for 24 h, then CHX
Experimental: as §2

[12] = test system: TRIM25; experiment: Protein stability, CHX chase and Western blotting; format: cell-based, human; conditions: BGC823 cells; 50 μM for 12 h, then CHX
Experimental: as §2

[13] = test system: BGC823 cells; experiment: Metastatic GC mouse model (tail vein injection, bioluminescence imaging, HE staining of lung); format: in vivo, BALB/c nude mice
Experimental: For establishment of metastatic GC mouse model, five-week-old BALB/c nude mice were randomly divided into two groups, 3 mice each. BGC823 cells were suspended in PBS. The mice were injected intravenously with 2 × 10^6 cells in 0.15 mL of PBS through tail vein. On next day, the mice were treated by intra-peritoneal (ip) injection of Ctrl-H-P and JP3 and followed by luciferase substrate (GM-040611, Genomeditech, China); and photographed using the IVIS Spectrum in vivo imaging system (PerkinElmer, USA) on day 50th to observe the cancer cell metastasis.

[14] = test system: CD31; experiment: IHC of lung sections, metastatic GC mouse model; format: in vivo, BALB/c nude mice
Experimental: (§4) Fig. 1 MMP2-targeted polypeptide JP3 inhibits growth and metastasis of GC in vivo. a The screening flowchart of JWA candidate peptides in nude mice. b The name and amino acid sequence of six fragments. c The ratios of mouse xenograft tumor weight/mice weight from screening model by intratumor injection. d The inhibition rates of tumor growth from screening model by intraperitoneal injection. e The expression levels of MMP2, CD31 and PCNA protein were analyzed using Western blotting in tumor tissues from nude mice bearing GC. f-g Sections of tumors were stained with anti-Ki-67 and anti-CD31 antibodies by IHC (scale bars = 50 μm). h-i The luciferase signals in the mice were detected and photographed using an IVIS in vivo image system. j-k The representative HE staining sections of lung (scale bars = 2 mm). l-m Sections of lung were stained with anti-CD31 antibodies by IHC (scale bars = 50 μm). The data are presented as the means ± SEM, ns: no significance, *P < 0.05, **P < 0.01
For establishment of metastatic GC mouse model, five-week-old BALB/c nude mice were randomly divided into two groups, 3 mice each. BGC823 cells were suspended in PBS. The mice were injected intravenously with 2 × 10^6 cells in 0.15 mL of PBS through tail vein. […]

[15] = Toxicity and body weight in treated mice; format: in vivo, BALB/c nude mice; conditions: xenograft and metastatic mice models
[16] = test system: CD31 (microvessel density (MVD)); experiment: IHC of xenograft tumor sections; format: in vivo, BALB/c nude mice
Experimental: as §4

[17] = test system: Ki-67; experiment: IHC of xenograft tumor sections; format: in vivo, BALB/c nude mice
Experimental: as §4

[18] = test system: TRIM25; experiment: Western blotting in BGC823 cells; format: cell-based, human; conditions: 0, 1, 10, 50 μM for 24 h
Experimental: as §2

[19] = test system: BGC823 cells; experiment: Xenograft screening of MMP2-targeted peptides by intraperitoneal injection; format: in vivo, BALB/c nude mice
Experimental: (§5) For establishing xenograft mouse models, 5 × 10^6/200 μL of BGC823 cells were subcutaneously injected into flank of BALB/c nude mice. When the tumor volume (V = 0.5 × length × width^2) reached about 100 mm^3, the mice were randomly divided into different groups and received the indicated treatments. General situations and activities of each mouse were daily recorded. Tumor sizes were recorded by caliper every 3 days for calculating tumor volumes. Body weight of the experimental mouse was also recorded every 3 days. The endpoint of the experimental therapy was determined until enough growth (up to 2000 mm^3) of the xenograft tumor or intolerable side effects.
(§6) In the present study, the strategy to screen JWA protein based functional tumor inhibitory peptides included four steps, (1) all the candidate fragments were selected from non-transmembrane regions and contain amino acid can be phosphorylated in its sequence; (2) the intra-tumor injection in xenograft GC tumor in mouse model was used for first round screening for all candidate fragments; (3) the identified functional peptides in (2) were modified with HWGF as MMP2 target and used for secondary screening by intraperitoneal injection in xenograft GC mouse model; (4) the functional peptides selected in (3) were further used to inhibit metastasis of GC (Fig. 1a).

[20] = test system: PCNA; experiment: Western blotting of xenograft tumor tissues; format: in vivo, BALB/c nude mice; conditions: nude mice bearing GC
Experimental: as §2

[21] = test system: SP1; experiment: Western blotting of xenograft tumor tissues; format: in vivo, BALB/c nude mice; conditions: compared to the Ctrl-P-H treatment
Experimental: as §2

[22] = test system: CD31; experiment: Western blotting of xenograft tumor tissues; format: in vivo, BALB/c nude mice; conditions: nude mice bearing GC
Experimental: as §2

[23] = test system: TRIM25; experiment: Western blotting of xenograft tumor tissues; format: in vivo, BALB/c nude mice; conditions: compared to the Ctrl-P-H treatment
Experimental: as §2

[24] = test system: MMP2; experiment: Western blotting of xenograft tumor tissues; format: in vivo, BALB/c nude mice; conditions: nude mice bearing GC
Experimental: as §2

[25] = test system: BGC823 cells; experiment: Xenograft screening of candidate peptides by intra-tumor injection; format: in vivo, BALB/c nude mice; conditions: BGC823 subcutaneous xenograft; intra-tumor injection 10 mg/kg/d for 5 days/week x 2 weeks
Experimental: as §5, §6

CSCC[C@H](NC(=O)[C@H](CCCNC(=N)N)NC(C)=O)C(=O)N[C@@H](CCCCN)C(=O)N[C@@H](CCCCN)C(=O)N[C@@H](CCCNC(=N)N)C(=O)N[C@@H](Cc1ccc(O)cc1)C(=O)N1CCC[C@H]1C(=O)N[C@H](C(=O)N[C@H](C(=O)N[C@@H](Cc1ccccc1)C(=O)N[C@H](C(=O)N[C@@H](CCSC)C(=O)N[C@H](C(=O)N[C@H](C(=O)NCC(=O)NCC(=O)NCC(=O)NCC(=O)N[C@@H](Cc1c[nH]cn1)C(=O)N[C@@H](Cc1c[nH]c2ccccc12)C(=O)NCC(=O)N[C@@H](Cc1ccccc1)C(N)=O)C(C)C)C(C)C)C(C)C)[C@@H](C)OP(=O)(O)O)[C@@H](C)O [JP3] (Ac-RMKKRYPT[pT]FVMVVGGGGHWGF-NH2)
tubular formation of HUVECs ([1]; supernatent of peptide-treated BGC823 cells): dose-dependently inhibited
tubular formation of HUVECs ([1]; supernatent of peptide-treated SGC7901 cells): dose-dependently inhibited
effect on GC cell proliferation in vitro (colony numbers) [2]: no obvious effects
relative band intensity printed with the blot (IP: SP1, IB: ubiquitin) ([3]; BGC823, His-ub, JP3 50 μM, with MG132 10 μM 6 h, control = 1.00, MG132 alone 1.50): 2.17
ubiquitinated SP1 ([3]; BGC823 and SGC7901 cells, His-ub 48 h, 50 μM for 24 h, IP anti-SP1): increased
ubiquitinated TRIM25 [4]: decreased
expression of SP1 in GC cells [5]: down-regulated
mRNA level of TRIM25 [6]: not affected
mRNA level of SP1 [7]: not affected
tubular formation of HUVECs, direct treatment [8]: no obvious effects
expression of JWA in GC cells [9]: no obvious effect
expression of MMP2 in GC cells [10]: down-regulated
degradation (stability) of SP1 [11]: accelerated degradation
degradation (stability) of TRIM25 [12]: slowed down the degradation
relative area of metastatic tumor in lung ([13]; HE staining): significantly decreased
fluorescence intensity of GC cell metastatic foci ([13]; bioluminescence imaging on day 50, ip injection, compared with Ctrl-P-H group, 3 mice each): obviously reduced
expression of CD31 in GC metastatic tissues [14]: significantly suppressed
side effects [15]: undetectable side effects
expression of CD31 (microvessel density (MVD)) in GC tumor tissues [16]: suppressed
expression of Ki-67 in GC tumor tissues [17]: suppressed
TRIM25 protein level [18]: dose-dependent increase
tumor inhibitory rate (inhibition of xenograft tumor growth) ([19]; BGC823 subcutaneous xenograft, intraperitoneal injection 50 mg/kg/d for 12 days): best tumor inhibitory rate among candidates
expression of PCNA in GC tumor tissues [20]: down-regulated
expression of SP1 in GC tumor tissues [21]: down-regulated
expression of CD31 in GC tumor tissues [22]: down-regulated
expression of TRIM25 in GC tumor tissues [23]: up-regulated
expression of MMP2 in GC tumor tissues [24]: down-regulated

CSCC[C@H](NC(=O)[C@H](CCCNC(=N)N)NC(C)=O)C(=O)N[C@@H](CCCCN)C(=O)N[C@@H](CCCCN)C(=O)N[C@@H](CCCNC(=N)N)C(=O)N[C@@H](Cc1ccc(OP(=O)(O)O)cc1)C(=O)N1CCC[C@H]1C(=O)N[C@H](C(=O)N[C@H](C(=O)N[C@@H](Cc1ccccc1)C(=O)N[C@H](C(=O)N[C@@H](CCSC)C(=O)N[C@H](C(=O)N[C@H](C(N)=O)C(C)C)C(C)C)C(C)C)[C@@H](C)O)[C@@H](C)O [PJP3–1] (Ac-RMKKR[pY]PTTFVMVV-NH2)
tumor inhibitory effect (ratio of mouse xenograft tumor weight/mice weight) [25]: better effects than the others

CSCC[C@H](NC(=O)[C@H](CCCNC(=N)N)NC(C)=O)C(=O)N[C@@H](CCCCN)C(=O)N[C@@H](CCCCN)C(=O)N[C@@H](CCCNC(=N)N)C(=O)N[C@@H](Cc1ccc(O)cc1)C(=O)N1CCC[C@H]1C(=O)N[C@H](C(=O)N[C@H](C(=O)N[C@@H](Cc1ccccc1)C(=O)N[C@H](C(=O)N[C@@H](CCSC)C(=O)N[C@H](C(=O)N[C@H](C(N)=O)C(C)C)C(C)C)C(C)C)[C@@H](C)OP(=O)(O)O)[C@@H](C)O [PJP3–3] (Ac-RMKKRYPT[pT]FVMVV-NH2)
tumor inhibitory effect (ratio of mouse xenograft tumor weight/mice weight) [25]: better effects than the others

CC[C@H](C)[C@H](NC(C)=O)C(=O)NCC(=O)N[C@@H](CC(C)C)C(=O)N[C@@H](CCCCN)C(=O)N[C@@H](CCCNC(=N)N)C(=O)N[C@H](C(=O)N1CCC[C@H]1C(=O)N[C@@H](CCSC)C(=O)NCC(=O)N[C@H](C(=O)N[C@H](C(N)=O)C(C)C)[C@@H](C)CC)[C@@H](C)OP(=O)(O)O [PJP5] (Ac-IGLKR[pT]PMGIV-NH2)
tumor inhibitory effect (ratio of mouse xenograft tumor weight/mice weight) [25]: better effects than the others

HWGF [histidine-tryptophan-glycine-phenylalanine, reference compound]
biological function to inhibit gastric cancer ([19]; HWGF targeting MMP2 alone): no biological function to inhibit gastric cancer
